Test results from patent US20090325952A1, “PYRAZOLO[3,4-B]PYRIDINE COMPOUNDS, AND THEIR USE AS PDE4 INHIBITORS” (Glaxo Group Limited, priority 2006, published 2009).
Counter-ions that a name gives are not always drawn.

Each compound was assayed on TNF-α (TNF-alpha) production in human PBMC (peripheral blood mononuclear cells) (assay: Inhibition of TNF-alpha production in human PBMC assay (MSD technology)). Settings: Homo sapiens, PBMC, LPS stimulated, measured and/or mean of n measurements, read-out: PBMC pIC50 (MSD assay), inhibition of TNF-α production (converted).
Format: cell-based
Method: A 96-well plate (96 MicroWell™ Plates Nunclon™Δ-High Flange Design, Fisher Scientific UK, Bishop Meadow Road, Loughborough LE 11 5 RG, Leicestershire, UK) is prepared by initially adding to column 1 ca. 10 mM of test compound dissolved in DMSO. […] The compound is further diluted with DMSO into columns 2 to 9 by 8 successive 3-fold dilutions using the Biomek® FX Laboratory Automation Workstation (Beckman Coulter, Inc., 4300 N. Harbor Boulevard, P.O. Box 3100, Fullerton, Calif. 92834-3100, USA). Column 10 is used as a DMSO negative control (High Signal, 0% response), whilst column 11, which contains 10 mM of the PDE4 inhibitor roflumilast, is used as a positive control (Low Signal, 100% response). About 1 μl (about 1 ul) of compound is transferred to the compound plate using the Biomek® FX.
PBMC cells (peripheral blood mononuclear cells) are prepared from heparinised human blood (using 1% v/v Heparin Sodium 10001 U/ml Endotoxin Free, Leo Laboratories Ltd., Cashel Road, Dublin 12. Ireland, Cat No: PL0043/0149) from normal volunteers using the Accuspin™ System-Histopaque®-1077 essentially (Sigma-Aldrich Company Ltd., The Old Brickyard New Rd, Gillingham, Dorset SP8 4XT, UK). About 20 ml of blood is overlaid onto 15 ml Histopaque® in Accuspin™ tubes. The tube is then centrifuged at about 800 g for ca. 20 minutes. The cells are collected from the interface, washed by centrifugation (ca. 1300 g, ca. 10 minutes) and resuspended in RPMI1640 medium (Low endotoxin RPMI1640 medium, Cat No: 31870-025, Invitrogen Corporation Invitrogen Ltd, 3 Fountain Drive, Inchinnan Business Park, Paisley PA4 9RF, UK) containing 10% foetal calf serum, 1% L-glutamine (Invitrogen Corporation, Cat No: 25030024) and 1% penicillin/streptomycin (Invitrogen Corporation, Cat No: 15140-122). Viable cells are counted by trypan blue staining and diluted to 1×10^6 viable cells/ml. About 50 μl (about 50 ul) of diluted cells and about 75 μl (about 75 ul) of LPS (ca. 1 ng/ml final; Sigma Cat No: L-6386) are added to the compound plate, which is then incubated at 37° C., 5% CO2, for 20 hours.
The supernatant is removed and the concentrations of TNF-α are determined by electrochemiluminescence assay using the Meso Scale Discovery (MSD) technology (Meso Scale Discovery, 9238 Gaither Road, Gaithersburg, Md. 20877, USA). See the “TNF-α (TNF-alpha) MSD Assay” described below for typical details.
For the following Examples, which are compounds of formula (I) or salts thereof, and generally when using the one of the above assays, or a generally similar or generally analogous assay, the measured and/or mean pIC50 values for inhibition of TNF-α (TNF-alpha) production in PBMCs are generally as follows (subject to a possibly-large variability or error):
Using the Biomek FX, 25 μl (25 ul) of MSD Human Serum Cytokine Assay Diluent (Meso Scale Discovery, 9238 Gaither Road, Gaithersburg, Md. 20877) is added to a 96-well High-Bind MSD plate pre-coated with anti-hTNF alpha capture antibody (MA6000) and then incubated for 24 hours at 4° C. to prevent non-specific binding. About 20 μl (ul) of supernatant from the PBMC plate or about 40 μl (ul) of supernatant from the whole blood (WB) plate are then transferred from columns 1-11 to columns 1-11 of the MSD plate using the Biomek FX. About 20 μl (ul) of TNF-α standard (Cat No. 210-TA; R&D Systems Inc., 614 McKinley Place NE, Minneapolis, Minn. 55413, USA) are added to column 12 of the MSD plate to generate a standard calibration curve (about 0 to 30000 pg/ml final).
For the Whole Blood assay, plates are washed after 2 hours shaking with a Skanwasher 300 version B (Skatron Instruments AS. PO Box 8, N-3401 Lier, Norway). About 40 μl (ul) of diluted sulfo-TAG antibody (ca. […] final) is added, the plates are shaken at room temperature for 1 hours, and the plates washed again as above. About 150 μl (ul) of Read Buffer T (2×) is added to the plates, which are then read on a MSD Sector 6000. […]

**Q.** `CCc1nc2c(cnn2CC)c(NC2CCOCC2)c1CNC(=O)c1ccc(CCCCOCCCCN(C)CCO)cc1` [Example 19, formate salt of N-{[1,6-diethyl-4-(tetrahydro-2H-pyran-4-ylamino)-1H-pyrazolo[3,4-b]pyridin-5-yl]methyl}-4-[4-({4-[(2-hydroxyethyl)(methyl)amino]butyl}oxy)butyl]benzamide] was tested. Which IC50 did it give?
**A.** ~0.251 nM

**Q.** For `CCn1ncc2c(NC3CCOCC3)c(CNC(=O)c3ccc(NC(=O)CCCCCCCN(C)CCO)cc3)cnc21` [Example 26, Formate salt of N-{[1-ethyl-4-(tetrahydro-2H-pyran-4-ylamino)-1H-pyrazolo[3,4-b]pyridin-5-yl]methyl}-4-({8-[(2-hydroxyethyl)(methyl)amino]octanoyl}amino)benzamide], which IC50 is on record?
**A.** ~15.8 nM

**Q.** For `CCc1nc2c(cnn2CC)c(NC2CCOCC2)c1CNC(=O)c1ccc(NC(=O)CCCCCCCN(C)CCO)cc1` [Example 1A1, N-{[1,6-Diethyl-4-(tetrahydro-2H-pyran-4-ylamino)-1H-pyrazolo[3,4-b]pyridin-5-yl]methyl}-4-({8-[(2-hydroxyethyl)(methyl)amino]octanoyl}amino)benzamide dihydrochloride], which IC50 is on record?
**A.** ~0.501 nM

Same assay, conditions: LPS stimulated, measured and/or mean of n measurements

**Q.** For `CCc1nc2c(cnn2CC)c(NC2CCOCC2)c1CNC(=O)c1ccc(NC(=O)CCCCCCCN(C)CCO)cc1` [Example 1B, N-{[1,6-diethyl-4-(tetrahydro-2H-pyran-4-ylamino)-1H-pyrazolo[3,4-b]pyridin-5-yl]methyl}-4-({8-[(2-hydroxyethyl)(methyl)amino]octanoyl}amino)benzamide], which “PBMC pIC50 (MSD assay), inhibition of TNF-α production” value (“PBMC pIC50 (MSD assay), inhibition” below) is on record?
**A.** about 9.2 (n = 29)

**Q.** For `CCc1nc2c(cnn2CC)c(NC2CCN(C(N)=O)CC2)c1CNC(=O)c1ccc(CCCCOCCCCN2CCOCC2)cc1` [Example 23A, 4-({1,6-diethyl-5-[({[4-(4-{[4-(4-morpholinyl)butyl]oxy}butyl)phenyl]carbonyl}amino)methyl]-1H-pyrazolo[3,4-b]pyridin-4-yl}amino)-1-piperidinecarboxamide], which “PBMC pIC50 (MSD assay), inhibition” value is on record?
**A.** about 9.1 (n = 8)

**Q.** With `CCc1nc2c(cnn2CC)c(NC2CCN(C(N)=O)CC2)c1CNC(=O)c1ccc(NC(=O)CCCCCCCN(C)CCO)cc1.O=C(O)C(F)(F)F` [Example 9, 4-({1,6-diethyl-5-[({[4-({8-[(2-hydroxyethyl)(methyl)amino]octanoyl}amino)phenyl]carbonyl}amino)methyl]-1H-pyrazolo[3,4-b]pyridin-4-yl}amino)-1-piperidinecarboxamide trifluoroacetate (salt)] as the compound, how does the “PBMC pIC50 (MSD assay), inhibition” value read?
**A.** about 8.4 (n = 4)
